The record followed here is US12655106B2 (Eikonizo Therapeutics, Inc., priority 2021, dated 2026).

The target of one assay is T1, Full length Human HDAC6 (Homo sapiens, UniProt Q9UBN7).
T1 construct: Full length Human HDAC6; FLAG (C); host or cells: baculovirus expression system
T1 sequence (Q9UBN7 1-1215): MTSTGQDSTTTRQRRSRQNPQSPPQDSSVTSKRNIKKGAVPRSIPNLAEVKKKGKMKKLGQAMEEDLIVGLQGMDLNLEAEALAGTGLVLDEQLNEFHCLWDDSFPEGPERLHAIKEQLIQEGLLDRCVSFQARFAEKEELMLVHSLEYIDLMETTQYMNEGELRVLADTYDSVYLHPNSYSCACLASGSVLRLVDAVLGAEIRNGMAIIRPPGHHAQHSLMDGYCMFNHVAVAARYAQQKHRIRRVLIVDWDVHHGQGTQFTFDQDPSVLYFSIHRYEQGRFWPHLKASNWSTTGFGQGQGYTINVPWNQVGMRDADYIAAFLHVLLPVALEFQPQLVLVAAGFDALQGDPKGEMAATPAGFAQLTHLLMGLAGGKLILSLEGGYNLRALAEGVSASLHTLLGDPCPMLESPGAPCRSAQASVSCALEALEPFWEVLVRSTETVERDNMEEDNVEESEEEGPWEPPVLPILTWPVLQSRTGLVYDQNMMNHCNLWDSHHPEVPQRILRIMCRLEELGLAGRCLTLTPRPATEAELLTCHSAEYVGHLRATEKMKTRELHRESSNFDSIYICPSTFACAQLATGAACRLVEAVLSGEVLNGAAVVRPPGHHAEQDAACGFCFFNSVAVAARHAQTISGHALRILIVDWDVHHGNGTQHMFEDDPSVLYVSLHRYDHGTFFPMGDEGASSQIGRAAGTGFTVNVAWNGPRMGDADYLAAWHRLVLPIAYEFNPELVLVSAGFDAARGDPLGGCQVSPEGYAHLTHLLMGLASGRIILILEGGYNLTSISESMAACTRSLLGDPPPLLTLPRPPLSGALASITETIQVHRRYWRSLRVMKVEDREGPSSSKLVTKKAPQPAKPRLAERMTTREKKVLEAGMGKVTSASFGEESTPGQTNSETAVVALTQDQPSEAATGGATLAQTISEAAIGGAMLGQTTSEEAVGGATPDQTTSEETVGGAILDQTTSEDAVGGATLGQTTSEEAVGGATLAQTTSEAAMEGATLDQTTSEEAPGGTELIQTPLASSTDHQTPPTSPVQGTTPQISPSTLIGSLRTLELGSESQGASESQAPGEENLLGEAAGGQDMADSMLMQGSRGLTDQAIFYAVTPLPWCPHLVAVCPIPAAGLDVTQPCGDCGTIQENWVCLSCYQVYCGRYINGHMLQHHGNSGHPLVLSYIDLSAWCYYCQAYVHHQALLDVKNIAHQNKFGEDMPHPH
The assay can be described thus: Caliper endpoint assay for HDAC enzymatic activity (HDAC6). The settings on record: for IC50: in vitro enzymatic, Caliper endpoint assay, 30 min pre-incubation, 1 μM substrate peptide; for Selectivity (6 v 8): ratio of HDAC8 IC50/HDAC6 IC50. Format: biochemical.

The next assay concerns the target T2, Full length Human HDAC8 (Homo sapiens, UniProt Q9BY41).
T2 construct: Full length Human HDAC8; HIS (N); host or cells: baculovirus expression system
T2 sequence (Q9BY41 1-377): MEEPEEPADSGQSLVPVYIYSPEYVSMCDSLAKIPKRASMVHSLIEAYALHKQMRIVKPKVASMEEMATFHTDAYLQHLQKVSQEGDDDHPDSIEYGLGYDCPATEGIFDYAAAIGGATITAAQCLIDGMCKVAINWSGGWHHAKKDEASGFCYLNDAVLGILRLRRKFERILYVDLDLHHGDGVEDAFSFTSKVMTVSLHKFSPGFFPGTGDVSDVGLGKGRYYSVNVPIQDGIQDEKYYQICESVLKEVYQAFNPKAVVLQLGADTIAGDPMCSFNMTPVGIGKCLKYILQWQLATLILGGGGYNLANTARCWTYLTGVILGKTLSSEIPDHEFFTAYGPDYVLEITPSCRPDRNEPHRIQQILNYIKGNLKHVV
The assay can be described thus: Caliper endpoint assay for HDAC enzymatic activity (HDAC8). Format: biochemical. The following applies: in vitro enzymatic, 30 min pre-incubation, 1 μM substrate peptide.

The structures appear in SMILES notation.

`O=C(NO)c1cc(F)c2c(c1)CCN([C@H]1C[C@@]3(CCCCO3)C1)C2` (single isomer, unassigned) [Compound 340, 8-fluoro-2-(5-oxaspiro[3.5]nonan-2-yl)-3,4-dihydro-1H-isoquinoline-6-carbohydroxamic acid]: on Full length Human HDAC6, the IC50 was in the range of 0.001 to 0.1 µM and the “Selectivity (6 v 8)” value is recorded as “V (V: >1000)”. In addition, the half-inhibitory concentration (IC50) on Full length Human HDAC8 lay within 10 to 100 µM.
The matching figures for `O=C(NO)c1cc(F)c2c(c1)CCN(C1CC3(CCCO3)C1)C2` (single isomer, unassigned) [Compound 190, 8-fluoro-N-hydroxy-2-(5-oxaspiro[3.4]octan-2-yl)-1,2,3,4-tetrahydroisoquinoline-6-carboxamide]: 0.001 to 0.1 µM, “IV (IV: >100-1000)” and 1 to 10 µM.
Regarding `CC[C@H]1Cc2c(F)cc(C(=O)NO)cc2CN1CC1CC2(CCCCC2)C1` (single isomer, unassigned) [Compound 522], at Full length Human HDAC6, the IC50 is 0.001 to 0.1 µM and the “Selectivity (6 v 8)” value is given as “III (III: >10-100)”. Further, the IC50 against Full length Human HDAC8 lay in the range of 0.1 to 1 µM.
In the case of `O=C(NO)c1cc(F)c2c(c1)C[C@H]1CCCCN1C2` [Compound 94], on Full length Human HDAC6, the IC50 was in the range of 0.1 to 1 µM and the “Selectivity (6 v 8)” value is recorded as “III (III: >10-100)”. The IC50 against Full length Human HDAC8 lay in the range of 1 to 10 µM.
As to `O=C(NO)c1cc(F)c2c(c1)CCN(C[C@H]1CCC3(CCCCC3)C1)C2` (single isomer, unassigned) [Compound 108], the IC50 at Full length Human HDAC6 was 0.001 to 0.1 µM; on Full length Human HDAC8, 10 to 100 µM.
In the case of `CC[C@@H]1Cc2c(F)cc(C(=O)NO)cc2CN1C1CC2(CCCCC2)C1` (single isomer, unassigned) [Compound 232], at Full length Human HDAC6, the half-inhibitory concentration (IC50) lay in the range of 0.1 to 1 µM and the “Selectivity (6 v 8)” value was “IV (IV: >100-1000)”. The same compound gave an IC50 against Full length Human HDAC8 of 10 to 100 µM.
For `CN1C[C@@]2(CN3CCc4cc(C(=O)NO)cc(F)c4C3)C[C@@H]1CO2` [Compound 474, 8-fluoro-2-[[(1S,4R)-5-methyl-2-oxa-5-azabicyclo[2.2.1]heptan-1-yl]methyl]-3,4-dihydro-1H-isoquinoline-6-carbohydroxamic acid], in that order: 0.001 to 0.1 µM, “IV (IV: >100-1000)” and 1 to 10 µM.
Turning to `CC[C@@H]1Cc2c(F)cc(C(=O)NO)cc2CN1CC1CCC2(CCC2)CC1` (single isomer, unassigned) [Compound 527], the IC50 on Full length Human HDAC6 was in the range of 0.001 to 0.1 µM; against Full length Human HDAC8 it was 1 to 10 µM. On Full length Human HDAC6, the “Selectivity (6 v 8)” value was “III (III: >10-100)”.
As for `CN1CC[C@]2(CC[C@H](N3CCc4cc(C(=O)NO)cc(F)c4C3)C2)C1` (single isomer, unassigned) [Compound 403], on Full length Human HDAC6, the IC50 lay in the range of 0.001 to 0.1 µM and the “Selectivity (6 v 8)” value was “V (V: >1000)”. In addition, at Full length Human HDAC8, the IC50 lay in the range of 10 to 100 µM.
With `O=C(NO)c1cc(F)c2c(c1)CCN(C1CCC3(CCCCC3)CC1)C2` [Compound 182, 8-fluoro-2-spiro[5.5]undecan-3-yl-3,4-dihydro-1H-isoquinoline-6-carbohydroxamic acid], on Full length Human HDAC6, the IC50 was 0.001 to 0.1 µM and the “Selectivity (6 v 8)” value was “IV (IV: >100-1000)”. Further, the half-maximal inhibitory concentration (IC50) against Full length Human HDAC8 was in the range of 10 to 100 µM.
For `O=C(NO)c1cc(F)c2c(c1)CCN(C1CC3(CCOC3)C1)C2` (single isomer, unassigned) [Compound 189, 8-fluoro-N-hydroxy-2-(6-oxaspiro[3.4]octan-2-yl)-1,2,3,4-tetrahydroisoquinoline-6-carboxamide], in that order: 0.001 to 0.1 µM, “IV (IV: >100-1000)” and 10 to 100 µM.
The matching figures for `CC(C)N1CC2(CCCCC2)CC[C@@H]1Cc1cc(F)cc(C(=O)NO)c1` (single isomer, unassigned) [Compound 275]: 1 to 10 µM, “I (I: 0.1-1)” and 1 to 10 µM.
On to `CC(=O)N1CCC2(CC1)CC(N1CCc3cc(C(=O)NO)cc(F)c3C1)C2` [Compound 199, 2-(7-acetyl-7-azaspiro[3.5]nonan-2-yl)-8-fluoro-N-hydroxy-1,2,3,4-tetrahydroisoquinoline-6-carboxamide], for which, on Full length Human HDAC6, the IC50 lay within 0.001 to 0.1 µM and the “Selectivity (6 v 8)” value is “IV (IV: >100-1000)”. The IC50 at Full length Human HDAC8 was 10 to 100 µM.
For `CC[C@H]1Cc2c(F)cc(C(=O)NO)cc2CN1C1CC2(CCN(C3CC3)CC2)C1` (single isomer, unassigned) [Compound 599], in that order: 0.1 to 1 µM, “IV (IV: >100-1000)” and 10 to 100 µM.
Turning to `O=C(NO)c1ccc(CN2C3CCCC2CCC3)c(F)c1` [Compound 60], the “Selectivity (6 v 8)” value on Full length Human HDAC6 is “II (II: >1-10)”.
On to `CC[C@@H]1Cc2c(F)cc(C(=O)NO)cc2CN1CC12CC3CC(CC(C3)C1)C2` (single isomer, unassigned) [Compound 507], for which, on Full length Human HDAC6, the IC50 is 0.1 to 1 µM and the “Selectivity (6 v 8)” value was “III (III: >10-100)”. The same compound showed an IC50 against Full length Human HDAC8 of 1 to 10 µM.
For `CC[C@H]1Cc2c(F)cc(C(=O)NO)cc2CN1C1CCC1` (single isomer, unassigned) [Compound 597], in that order: 0.1 to 1 µM, “IV (IV: >100-1000)” and 10 to 100 µM.
The matching figures for `O=C(NO)c1cc(F)c2c(c1)CCN(CC1CCC3(CC1)CNC3)C2` [Compound 464, 2-(2-azaspiro[3.5]nonan-7-ylmethyl)-8-fluoro-3,4-dihydro-1H-isoquinoline-6-carbohydroxamic acid]: 0.001 to 0.1 µM, “V (V: >1000)” and 10 to 100 µM.
For `CC[C@@H]1Cc2c(F)cc(C(=O)NO)cc2CN1CC1COC1` (single isomer, unassigned) [Compound 217], in that order: 0.001 to 0.1 µM, “IV (IV: >100-1000)” and 10 to 100 µM.
With `O=C(NO)c1ccc(CN2C3CCC2COC3)c(F)c1` [Compound 59], the “Selectivity (6 v 8)” value on Full length Human HDAC6 was “III (III: >10-100)”.
On the same count and under the same terms, the entry for `O=C(NO)c1ccc(CN2C3CCCC2CC3)c(F)c1` [Compound 61] is “II (II: >1-10)”.
Same read-out and setting: the entry for `O=C1CC2CCCC(C1)N2Cc1ccc(C(=O)NO)cc1F` [Compound 62] is “III (III: >10-100)”; for `O=C(NO)c1cc(F)c(CN2C3CCC2COC3)cc1F` [Compound 50] it is “III (III: >10-100)”; for `O=C(NO)c1ccc(CN2C3CCCC2COC3)c(F)c1` [Compound 52] it is “III (III: >10-100)”.
As to `O=C(NO)c1ccc2c(c1)CN1CCC[C@@H]21` (single isomer, unassigned) [Compound 165], the “Selectivity (6 v 8)” value on Full length Human HDAC6 was “III (III: >10-100)”.
On the same count and under the same terms, the entry for `CN1CC2CCC(C1)N2Cc1ccc(C(=O)NO)cc1F` [Compound 56] is “III (III: >10-100)”.
On the same count and under the same terms, the entry for `O=C1CC2CCC(C1)N2Cc1ccc(C(=O)NO)cc1F` [Compound 63] is “III (III: >10-100)”.
`CC1(C)C[C@H]2Cc3cc(C(=O)NO)cc(F)c3CN2C1` (single isomer, unassigned) [Compound 125]: at Full length Human HDAC6, the “Selectivity (6 v 8)” value is “III (III: >10-100)”.
Same read-out and setting: as for `O=C(NO)c1ccc(CN2CCC3(CCCCC3)C2)c(F)c1` [Compound 75, 4-((2-Azaspiro[4.5]decan-2-yl)methyl)-3-fluoro-N-hydroxybenzamide], the entry is “III (III: >10-100)”.

By IC50 is commonly meant the point on the concentration scale where inhibition reaches its midpoint. Low values mean greater potency, high ones weaker potency.
